Reference: US8461358B2, “Fluorescent probe for measuring protease” (The University of Tokyo, priority 2009, dated 2013)

Target: T1, leucine aminopeptidase, LAP (Sus scrofa, UniProt P15145)
T1 construct: purchased SIGMA L5006-25UN; host or cells: porcine kidney (tissue-derived)
T1 sequence (P15145 1-963): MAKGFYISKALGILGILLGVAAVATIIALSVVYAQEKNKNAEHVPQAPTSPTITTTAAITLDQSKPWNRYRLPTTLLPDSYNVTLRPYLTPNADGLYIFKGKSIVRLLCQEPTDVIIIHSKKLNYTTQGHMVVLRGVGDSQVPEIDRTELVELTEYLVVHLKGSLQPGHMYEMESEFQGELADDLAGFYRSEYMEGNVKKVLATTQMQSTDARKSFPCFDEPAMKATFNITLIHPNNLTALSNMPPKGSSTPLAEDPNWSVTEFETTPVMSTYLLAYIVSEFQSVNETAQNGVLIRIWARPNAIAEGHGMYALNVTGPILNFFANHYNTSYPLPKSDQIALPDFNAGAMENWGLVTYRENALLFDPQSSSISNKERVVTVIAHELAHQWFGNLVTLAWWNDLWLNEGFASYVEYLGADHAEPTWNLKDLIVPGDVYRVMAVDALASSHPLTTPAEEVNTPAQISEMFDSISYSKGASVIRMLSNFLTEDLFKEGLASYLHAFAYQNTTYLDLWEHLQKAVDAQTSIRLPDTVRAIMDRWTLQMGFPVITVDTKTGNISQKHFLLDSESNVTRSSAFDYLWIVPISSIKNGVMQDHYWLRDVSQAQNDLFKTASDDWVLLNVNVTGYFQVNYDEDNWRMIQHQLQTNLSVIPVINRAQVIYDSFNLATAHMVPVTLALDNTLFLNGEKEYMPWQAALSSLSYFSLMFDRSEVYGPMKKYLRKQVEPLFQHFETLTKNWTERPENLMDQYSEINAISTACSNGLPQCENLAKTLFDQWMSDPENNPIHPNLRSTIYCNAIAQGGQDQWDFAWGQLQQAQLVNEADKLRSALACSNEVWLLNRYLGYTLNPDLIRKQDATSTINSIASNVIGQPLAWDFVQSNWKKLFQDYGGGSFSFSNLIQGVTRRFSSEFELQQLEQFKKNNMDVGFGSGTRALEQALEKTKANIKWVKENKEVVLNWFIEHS
Assay: Enzymatic reaction of probe with leucine aminopeptidase, fluorescence/absorption readout
Type: biochemical, porcine
Settings: 5 μM compound
Procedure: Compound (2) (Leu-RhoHM) and Compound (3) (γGlu-RhoHM) formed by bonding acyl residues derived from leucine and glutamic acid to one amino group of Compound (1) (RhoHM), respectively, were each dissolved in a neutral phosphate buffer, and reacted with a protease (leucine aminopeptidase, LAP, porcine kidney, SIGMA L5006-25UN) and γ-glutamyl transpeptidase (GGT, equine kidney, SIGMA G9270-100UN). Specifically, 3 μL of a […] solution of each compound in dimethyl sulfoxide (DMSO) was dissolved in 3 mL of a 0.1 M sodium phosphate buffer (pH 7.4) at a final concentration of 5 μM, and each of LAP (0.15 U) and GGT (1.1 U) was added to the solution to allow an enzymatic reaction at 37° C. The excitation wavelength was 501 nm.
Further, each of the DMSO solutions of both compounds (5 mM) in a volume of 3 μL was dissolved in 3 mL of a 0.1 M sodium phosphate buffer (pH 7.4) at a final concentration of 5 μM, and the enzymatic reaction was performed at 37° C. The values of fluorescence intensity observed with each amount of the enzymes 1 minute (Leu-RhoHM) or 9 minutes (γGlu-RhoHM) after the addition of the enzyme were plotted. The excitation wavelength was 501 nm, and the fluorescence emission wavelength was 524 nm.
Enzyme specificity of Compounds (2) and (3) was examined. Each of the DMSO solutions (3 μL) was dissolved in 3 mL of a 0.1 M sodium phosphate buffer (pH 7.4) at a final concentration of 5 μM, and LAP (0.4 U) was added to the solution to perform the enzymatic reaction at 37° C.

CC(C)C[C@H](N)C(=O)Nc1ccc2c(c1)Oc1cc(N)ccc1C21OCc2ccccc21 (stereo partly drawn) [Compound (2)]
change of absorption and fluorescence intensity on reaction with LAP (0.1 M sodium phosphate buffer pH 7.4, LAP 0.15 U, 37° C., excitation 501 nm): prompt marked increase of absorption and fluorescence intensity | change of fluorescence intensity after reaction with LAP (enzyme specificity) (0.1 M sodium phosphate buffer pH 7.4, LAP 0.4 U, 37° C.): marked increase of fluorescence intensity | fluorescence intensity versus added LAP amount (pH 7.4, 37° C., 1 minute after addition of the enzyme, excitation 501 nm, emission 524 nm): linear increase of fluorescence intensity
